Data taken from US7939540B2, “4-(3-benzoylaminophenyl)-6,7-dimethoxy-2-methylaminoquinazoline derivatives” (Eisai R&D Management Co., Ltd., priority 2006, dated 2011).
Read-outs that look alike come from different tables or passages of the source.

How the values were obtained:
[1] = test system: CYP1A1; conditions: human, hepatocytes
Experimental: (§1) Cryopreserved human hepatocytes (XenoTeck) were rapidly thawed at 37° C., and viable cells were obtained using Hepatocytes Isolation Kit (Nosan Corporation). After cells prepared were diluted with ice cold William's Medium E (10% FBS, +PSG) to give a concentration of 5×10^5 viable cells/mL, the cells were seeded onto a 48-well collagen-coated plate (BD Biosciences) at a concentration of 1×10^5 cells/cm^2 and cultured at 37° C. in 5% CO2 for 24 hours. Then, the medium was replaced with Hepato-STIM (registered trade mark: BD Biosciences) (+EGF, PSG, −FBS), and the cells were further cultured at 37° C. in 5% CO2 for 24 hours. […] The culture medium containing test compound, β-NF or Rif was replaced every 24 hours. Test compound, β-NF and Rif were each dissolved in dimethyl sulfoxide (DMSO: Wako Pure Chemical Industries, Ltd.), and culture medium containing test compound (final concentrations; 1, 3 and 10 μM), β-NF (final concentration; 10 μM) or Rif (final concentration; 10 μM) was prepared by adding them to Hepato-STIM(+EGF, PSG, −FBS), respectively. Final concentration of DMSO was set to be 0.1%, and culture medium containing 0.1% DMSO was used for control. After completion of the treatment, the cells were washed with PBS once, and total RNA was purified using Total RNA Purification Kit (Applied Biosystems). The purified total RNA was subjected to reverse transcription reaction using TaqMan Reverse Transcription Reagents (Applied Biosystems) to synthesize cDNA, where oligo dT was used as a primer. The reaction was carried out using Gene Amp PCR system 9700 at 25° C. for 10 minutes, followed by at 48° C. for 60 minutes. Then, reverse transcriptase was deactivated at 95° C. for 10 minutes. The levels of mRNA for CYP1A1 and GAPDH were quantified using SYBR Green PCR Core Reagents Kit (Applied Biosystems), and those for CYP1A2 and that of CYP3A4 were measured using Taqman PCR Core Reagents Kit (Applied Biosystems) and ABI Prism 7900 Sequence Detection System (Applied Biosystems).
(§2) * A cycle consisting of denaturation, annealing, and elongation reaction, was repeated 50 times.
(§3) The ability of a test compound to induce CYP1A1 was calculated as follows: Ability of a test compound to induce CYP1A1 (%)={[(amount of mRNA of CYP1A1 in test compound treated cells)/(amount of mRNA of GAPDH in test compound treated cells)]/[(amount of mRNA of CYP1A1 in control cells)/(amount of mRNA of GAPDH in control cells)]−1}/{[(amount of mRNA of CYP1A1 in positive control treated cells)/(amount of mRNA of GAPDH in positive control treated cells)]/[(amount of mRNA of CYP1A1 in control cells)/(amount of mRNA of GAPDH in control cells)]−1}×100

[2] = test system: CYPs; assay: Induction potency on CYPs in cryopreserved human hepatocytes, overall statement; format: in vitro ADME; conditions: cryopreserved human hepatocytes, 1, 3 and 10 μM; result in words
Experimental: The ability to induce CYP1A2 or CYP3A4 was calculated in the same manner described above.

[3] = test system: CYP1A2; conditions: human, hepatocytes
Experimental: as §1, §2, §3

[4] = test system: CYP3A4; assay: Induction potency of drug metabolizing enzyme (CYP) using cryopreserved human hepatocytes, CYP3A4 mRNA; conditions: approximately 48 hours, mRNA normalised to GAPDH, positive control rifampicin 10 μM
Experimental: as §1, §2, §3

Compound	Induction Ability compared to positive control (%) CYP1A1 ([1]; 1 μM)	Induction Ability compared to positive control (%) CYP1A1 ([1]; 3 μM)	Induction Ability compared to positive control (%) CYP1A1 ([1]; 10 μM)	Induction Ability compared to positive control (%) CYP1A2 ([3]; 1 μM)	Induction Ability compared to positive control (%) CYP1A2 ([3]; 3 μM)	Induction Ability compared to positive control (%) CYP1A2 ([3]; 10 μM)	Induction Ability compared to positive control (%) CYP3A4 ([4]; test compound 1 μM)	Induction Ability compared to positive control (%) CYP3A4 ([4]; test compound 3 μM)	Induction Ability compared to positive control (%) CYP3A4 ([4]; test compound 10 μM)	induction potency on CYPs [2]
CNc1nc(-c2cccc(NC(=O)c3ccccc3)c2)c2cc(OC)c(OC)cc2n1 [Comparative example, 4-(3-benzoylaminophenyl)-6,7-dimethoxy-2-methylaminoquinalozine, reference compound]	2.1%	18.5%	51.9%	7.2%	34.3%	35.0%	1.6%	10.8%	17.0%	induction potency on CYPs was observed
CCOC(=O)c1ccc(C(=O)Nc2cccc(-c3nc(NC)nc4cc(OC)c(OC)cc34)c2)cc1 [Example 4, ethyl N-[3-(6,7-dimethoxy-2-methylaminoquinazolin-4-yl)phenyl]terephthalamic acid]	0.1%	0.4%	1.5%	−1.1%	0.6%	6.1%	−5.6%	−6.1%	0.1%	–
CNC(=O)c1ccc(C(=O)Nc2cccc(-c3nc(NC)nc4cc(OC)c(OC)cc34)c2)cc1 [Example 5, N-[3-(6,7-dimethoxy-2-methylaminoquinazolin-4-yl)phenyl]-N′-methylterephthalamide]	0.0%	0.0%	0.0%	−2.0%	−1.3%	0.5%	−6.9%	−6.2%	−2.0%	–
CNc1nc(-c2cccc(NC(=O)c3ccc(C(=O)OC(C)C)cc3)c2)c2cc(OC)c(OC)cc2n1 [Example 7, isopropyl N-[3-(6,7-dimethoxy-2-methylaminoquinazolin-4-yl)phenyl]terephthalamic acid]	0.2%	1.8%	5.7%	0.5%	1.5%	3.1%	−6.6%	−9.8%	−11.9%	–
CNC(=O)c1cccc(C(=O)Nc2cccc(-c3nc(NC)nc4cc(OC)c(OC)cc34)c2)c1 [Example 16, N-[3-(6,7-dimethoxy-2-methylaminoquinazolin-4-yl)phenyl]-N′-methylisophthalamide]	0.0%	0.3%	1.0%	0.2%	3.9%	1.2%	−0.7%	−0.3%	2.7%	–

Now from value to compound, other results behind:

Induction Ability compared to positive control (%) CYP1A1 ([1]; 1 μM)	Induction Ability compared to positive control (%) CYP1A1 ([1]; 3 μM)	Induction Ability compared to positive control (%) CYP1A1 ([1]; 10 μM)	Induction Ability compared to positive control (%) CYP1A2 ([3]; 1 μM)	Induction Ability compared to positive control (%) CYP1A2 ([3]; 3 μM)	Induction Ability compared to positive control (%) CYP1A2 ([3]; 10 μM)	Induction Ability compared to positive control (%) CYP3A4 ([4]; test compound 1 μM)	Induction Ability compared to positive control (%) CYP3A4 ([4]; test compound 3 μM)	Induction Ability compared to positive control (%) CYP3A4 ([4]; test compound 10 μM)	Compound	induction potency on CYPs [2]
0.2%	0.3%	0.7%	1.2%	3.0%	1.8%	0.7%	−0.1%	−1.5%	CCCOC(=O)c1cccc(C(=O)Nc2cccc(-c3nc(NC)nc4cc(OC)c(OC)cc34)c2)c1 [Example 14, propyl N-[3-(6,7-dimethoxy-2-methylaminoquinazolin-4-yl)phenyl]isophthalic acid]	–
0.1%	0.1%	0.8%	−1.7%	−1.6%	−1.2%	−2.0%	−2.1%	−2.2%	CNc1nc(-c2cccc(NC(=O)c3ccc(C(=O)OCCOC)cc3)c2)c2cc(OC)c(OC)cc2n1 [Example 20, N-[3-(6,7-dimethoxy-2-methylaminoquinazolin-4-yl)phenyl]terephthalamic acid 2-methoxyethyl ester]	–
0.0%	0.0%	0.1%	0.6%	−0.3%	0.4%	−1.2%	−1.6%	−2.0%	CNc1nc(-c2cccc(NC(=O)c3cccc(C(=O)OCCOC)c3)c2)c2cc(OC)c(OC)cc2n1 [Example 21, N-[3-(6,7-dimethoxy-2-methylaminoquinazolin-4-yl)phenyl]isophthalamic acid 2-methoxyethyl ester]	–
